How the values were obtained:
[1] = system: human cervical cancer cell line Hela; assay: WST-8 antiproliferative assay, Hela; format: cell-based; details: WST-8 assay; for inhibition at 100 µM: read-out: Growth Inhibition (GI%) Hela; for IC50: six concentrations 1-100 µM, read-out: IC50 Hela
Protocol: (§1) Compounds 7a–j, 8a–j, 9a–c, and 10a–c were evaluated for in vitro anticancer activities against five different cancer cell lines, namely, human colorectal adenocarcinoma cell lines DLD-1, human cervical cancer cell line Hela, human pancreatic cancer cell line SUIT-2, human myelogenous leukemia cell line K562, and human hepatocellular carcinoma cell line HepG2 using WST-8 assay at concentrations of 100 µM to investigate the growth inhibition percent (GI%) of each compound using daunorubicin as a reference drug. […]. […] So, as a conclusion on the SAR study of those compounds as antiproliferative agents, the oxime moiety potentiated the anticancer activity and electron donating groups on R1 and R2 played an important role on this activity. Moreover, the sulfamoyl moiety on R3 seems to play a potential role in the activity of the prepared compounds (Table 1).
(§2) All selected compounds and daunorubicin were recorded as the minimum concentration required to inhibit half cell growth (IC50) and the results are listed in Table 2.
(§3) Evaluation of anticancer activity was performed according to the standard water-soluble tetrazolium-8 (WST-8) assay at the Faculty of Engineering, Yamagata University, Yonezawa, Japan, using an MTP-310 absorbance microplate reader. The EGFR inhibitory assay was carried out at the Faculty of Engineering, Yamagata University, Yonezawa, Japan, according to the protocol enzyme linked immunosorbent assay (ELISA) kits (Douset sandwich ELISA test, recombinant mouse EGFR). The JNK-2 inhibitory assay was performed at the Faculty of Engineering, Yamagata University, Yonezawa, Japan, according to the protocol of enzyme-linked immunosorbent assay (ELISA), the assay was carried out using the JNK-2 kit (Simple Step ELISA, pT183/Y185, Abcam Company, Cambridge, CB2 0AX, UK). Apoptosis and cell cycle analysis was performed at Faculty of medicine, Yamagata University, Yamagata, Japan, using BD FACS melody. Molecular docking was performed at the Nano Medical Engineering Laboratory, RIKEN Cluster for Pioneering Researchers, RIEKN, Japan, using ICM-Pro 3.8 software (MolSoft L.L.C., San Diego, CA, USA).
(§4) According to the standard water-soluble tetrazolium-8 (WST-8) assay, the current synthesized compounds have been tested for their anticancer activities against different five cancer cell lines; DLD-1, Hela, K562, SUIT-2, and HepG2 and daunorubicin was used as reference drug by the WST-8 assay. The five cells were maintained in a suspension culture, (Dulbecco’s modified eagle medium (DMEM) for SUIT-2, Hela, and HepG2 or PRIM for K562 and DLD), supplemented with 5% FBS (Fetal Bovine Serum) containing 1% of a penicillin-streptomycin (1:1) mixture. A 100 μL aliquot of cells (10,000 cells/mL) was added to a 96 well plate and incubated for 24 h at 37 °C in a humidified incubator containing 5% CO2 in the air. […] Then A 10 μL WST-8 solution (mixture of WST-8 and 1-methoxy PMS) was added to each well and the incubation continued for 3 h. The visible absorbance at 450 nm and 630 nm as the reference wavelength of each well was quantified using an MTP-310 absorbance microplate reader. Daunorubicin was used as a positive control. The results of cytotoxicity were recorded as growth inhibition percentages and as IC50 values.

[2] = system: human pancreatic cancer cell line SUIT-2; assay: WST-8 antiproliferative assay, SUIT-2; format: cell-based; details: SUIT-2, 100 µM, WST-8 assay, read-out: Growth Inhibition (GI%) SUIT-2
Protocol: as §1, §2, §3
(§5) According to the standard water-soluble tetrazolium-8 (WST-8) assay, the current synthesized compounds have been tested for their anticancer activities against different five cancer cell lines; DLD-1, Hela, K562, SUIT-2, and HepG2 and daunorubicin was used as reference drug by the WST-8 assay. The five cells were maintained in a suspension culture, (Dulbecco’s modified eagle medium (DMEM) for SUIT-2, Hela, and HepG2 or PRIM for K562 and DLD), supplemented with 5% FBS (Fetal Bovine Serum) containing 1% of a penicillin-streptomycin (1:1) mixture. A 100 μL aliquot of cells (10,000 cells/mL) was added to a 96 well plate and incubated for 24 h at 37 °C in a humidified incubator containing 5% CO2 in the air. After 24 h, a 10 μL aliquot of test compound (concentrations varying in the range of 10–150 µM) was added to each of the 96 wells and incubated for 24 h. Then A 10 μL WST-8 solution (mixture of WST-8 and 1-methoxy PMS) was added to each well and the incubation continued for 3 h. The visible absorbance at 450 nm and 630 nm as the reference wavelength of each well was quantified using an MTP-310 absorbance microplate reader. Daunorubicin was used as a positive control. The results of cytotoxicity were recorded as growth inhibition percentages and as IC50 values.

[3] = system: human myelogenous leukemia cell line K562; assay: WST-8 antiproliferative assay, K562; format: cell-based; details: Homo sapiens, K562, WST-8 assay; for inhibition at 100 µM: read-out: Growth Inhibition (GI%) K562
Protocol: as §1, §2, §3, §4

[4] = system: human hepatocellular carcinoma cell line HepG2; assay: WST-8 antiproliferative assay, HepG2; format: cell-based; details: HepG2, 100 µM, WST-8 assay, read-out: Growth Inhibition (GI%) HepG2
Protocol: as §1, §2, §3, §5

[5] = system: human colorectal adenocarcinoma cell line DLD-1; assay: WST-8 antiproliferative assay, DLD-1; format: cell-based; details: DLD-1, 100 µM, WST-8 assay, read-out: Growth Inhibition (GI%) DLD-1
Protocol: as §1, §2, §3, §5

[6] = system: human colorectal adenocarcinoma cell line DLD-1; assay: WST-8 antiproliferative assay, DLD-1; format: cell-based; details: WST-8 assay, six concentrations 1-100 µM
[7] = system: human pancreatic cancer cell line SUIT-2; assay: WST-8 antiproliferative assay, SUIT-2; format: cell-based; details: WST-8 assay, six concentrations 1-100 µM

| melting point [°C] | IC50 [1] [µM] | IC50 [6] [µM] | IC50 [7] [µM] | IC50 ([3]; six concentrations 1-100 µM, read-out: IC50 K562) [µM] | SMILES | inhibition at 100 µM [1] [%] | inhibition at 100 µM [2] [%] | inhibition at 100 µM [3] [%] | inhibition at 100 µM [4] [%] | inhibition at 100 µM [5] [%] |
| --- | --- | --- | --- | --- | --- | --- | --- | --- | --- | --- |
| 98 to 100 | – | – | – | – | COc1cc(C(C)=O)ccc1OC(=O)c1cc(-c2ccccc2)n(-c2ccccc2)n1 [Compound 7a, 4–Acetyl–2–methoxyphenyl 1,5–diphenyl–1H–pyrazole–3–carboxylate] | 55 | 101 | 0 | 5 | 0 |
| 69 to 71 | – | – | – | – | COc1ccc(-c2cc(C(=O)Oc3ccc(C(C)=O)cc3OC)nn2-c2ccccc2)cc1 [Compound 7c, 4–Acetyl–2–methoxyphenyl–5–(4–methoxyphenyl) 1–phenyl–1H–pyrazole–3–carboxylate] | 52 | 68 | 48 | 0 | 0 |
| 85 to 87 | 15 | 81 | 43 | – | COc1cc(C(C)=O)ccc1OC(=O)c1cc(-c2ccc(Cl)cc2)n(-c2ccccc2)n1 [Compound 7d, 4–Acetyl–2–methoxyphenyl–5–(4–chlorophenyl) 1–phenyl–1H–pyrazole–3–carboxylate] | 104 | 104 | 50 | 31 | 72 |
| 74 to 76 | – | – | – | – | COc1ccc(-c2cc(C(=O)Oc3ccc(C(C)=O)cc3OC)nn2-c2ccccc2)cc1OC [Compound 7e, 4–Acetyl–2–methoxyphenyl–5–(3,4–dimethoxyphenyl) 1–phenyl–1H–pyrazole–3–carboxylate] | 73 | 101 | 0 | 14 | 59.4 |
| 69 to 72 | – | – | – | – | COc1cc(C(C)=O)ccc1OC(=O)c1cc(-c2ccccc2)n(-c2ccc(S(N)(=O)=O)cc2)n1 [Compound 7f, 4–Acetyl–2–methoxyphenyl–5–phenyl 1–(4–sulfamoylphenyl)–1H–pyrazole–3–carboxylate] | 16 | 75 | 24 | 10 | 18.6 |
| 80 to 83 | – | – | – | – | COc1ccc(-c2cc(C(=O)Oc3ccc(C(C)=O)cc3OC)nn2-c2ccc(S(N)(=O)=O)cc2)cc1 [Compound 7h, 4–Acetyl–2–methoxyphenyl 5–(4–methoxyphenyl) 1–(4–sulfamoylphenyl)–1H–pyrazole–3–carboxylate] | 0 | 73 | 0 | 0 | 0 |
| 71 to 74 | 25 | – | 92 | 93 | COc1cc(C(C)=O)ccc1OC(=O)c1cc(-c2ccc(Cl)cc2)n(-c2ccc(S(N)(=O)=O)cc2)n1 [Compound 7i, 4–Acetyl–2–methoxyphenyl–5–(4–chlorophenyl) 1–(4–sulfamoylphenyl)–1H–pyrazole–3–carboxylate] | 101 | 101 | 101 | 63 | 46 |
| 75 to 78 | – | – | – | – | COc1ccc(-c2cc(C(=O)Oc3ccc(C(C)=O)cc3OC)nn2-c2ccc(S(N)(=O)=O)cc2)cc1OC [Compound 7j, 4–Acetyl–2–methoxyphenyl–5–(3,4–dimethoxyphenyl) 1–(4–sulfamoylphenyl)–1H–pyrazole–3–carboxylate] | 10 | 81 | 11 | 0 | 0.1 |
| 132 to 135 | – | – | – | – | COc1ccc(-c2cc(C(=O)Oc3ccc(/C(C)=N/O)cc3OC)nn2-c2ccccc2)cc1 [Compound 8c, (E)–4–(1–(Hydroxyimino)ethyl)–2–methoxyphenyl 5–(4–methoxyphenyl) 1–phenyl–1H–pyrazole–3–carboxylate] | 78 | 61 | 67 | 51 | 0 |
| 129 to 131 | – | – | – | – | COc1ccc(-c2cc(C(=O)Oc3ccc(/C(C)=N/O)cc3OC)nn2-c2ccc(S(N)(=O)=O)cc2)cc1OC [Compound 8j, (E)–4–(1–(Hydroxyimino)ethyl)–2–methoxyphenyl 5–(3,4–dimethoxyphenyl)–1–(4–sulfamoylphenyl)–1H–pyrazole–3–carboxylate] | 53 | 79 | 34 | 60 | 9.6 |
| 81 to 83 | – | – | – | – | CC(=O)c1ccc(NC(=O)c2cc(-c3ccccc3)n(-c3ccc(S(N)(=O)=O)cc3)n2)cc1 [Compound 9a, N–(4–Acetylphenyl)–5–phenyl–1–(4–sulfamoylphenyl)–1H–pyrazole–3–carboxamide] | 9 | 60 | 66 | 36 | 60.7 |
| 74 to 76 | – | – | – | – | COc1ccc(-c2cc(C(=O)Nc3ccc(C(C)=O)cc3)nn2-c2ccc(S(N)(=O)=O)cc2)cc1 [Compound 9b, N–(4–Acetylphenyl)–5–(4–methoxyphenyl)–1–(4–sulfamoylphenyl)–1H–pyrazole–3–carboxamide] | 0 | 45 | 31 | 19 | 42.1 |
| 81 to 83 | – | – | – | – | COc1ccc(-c2cc(C(=O)Nc3ccc(C(C)=O)cc3)nn2-c2ccc(S(N)(=O)=O)cc2)cc1OC [Compound 9c, N–(4–Acetylphenyl)–5–(3,4–dimethoxyphenyl)–1–(4–sulfamoylphenyl)–1H–pyrazole–3–carboxamide] | 9 | 42 | 57 | 22 | 16.8 |
